These are literature values, as cited in EP0313535B1 (Bristol-Myers Squibb Company, priority 1987, dated 1989).

For series [1] the following is noted: metabolite of buspirone.

Molecules are shown by their SMILES.

As to `c1cnc(N2CCNCC2)nc1` [Example 1-PP, 1-(2-pyrimidinyl)-piperazine], the “activity relative to buspirone per se” value in series [1] is on record as 20-25%.

`O=C1CC2(CCCC2)CC(=O)N1CCCCN1CCN(c2ncc(O)cn2)CC1` [5-OH-buspirone]: the pharmacological activity entry in series [1] is recorded as “no pharmacological activity”. On to `O=C1CC2(CCCC2)CC(=O)N1CCCCN1CCN(c2ncccn2)CC1` [buspirone, Buspirone], for which the biological half life (in man (Mayol et al. 1985)) is 2-11 hours. Also, for the setting “interindividual (Gammans et al. 1986)”, the “variation of the maximum plasma concentration” value is “up to 10 fold”.
